The source of these data is PMC3530927 (Journal of medicinal chemistry, 2012).

One series is described as follows: Intrinsic clearance. Type of series: in vitro ADME. Conditions: rat hepatic microsomes.
A short description of series [1]: Snapshot in vivo PK, IP plasma and brain levels. Conditions: brain, 10 mg/kg.
The test system of a further series is calcium channel, L-type. As to the kind of experiment: Ricerca Lead Profiling Screen radioligand binding.
Another series concerns the target calcium channel, N-type (Homo sapiens, UniProt Q00975). As to the kind of experiment: Ricerca Lead Profiling Screen radioligand binding.
The subject of the next series is potassium channel (KATP). As to the kind of experiment: Ricerca Lead Profiling Screen radioligand binding.
The target of a further series is potassium channel (hERG) (Homo sapiens, UniProt Q12809). The series is described as follows: Ricerca Lead Profiling Screen radioligand binding.
potassium channel (hERG), sequence (Q12809 whole entry): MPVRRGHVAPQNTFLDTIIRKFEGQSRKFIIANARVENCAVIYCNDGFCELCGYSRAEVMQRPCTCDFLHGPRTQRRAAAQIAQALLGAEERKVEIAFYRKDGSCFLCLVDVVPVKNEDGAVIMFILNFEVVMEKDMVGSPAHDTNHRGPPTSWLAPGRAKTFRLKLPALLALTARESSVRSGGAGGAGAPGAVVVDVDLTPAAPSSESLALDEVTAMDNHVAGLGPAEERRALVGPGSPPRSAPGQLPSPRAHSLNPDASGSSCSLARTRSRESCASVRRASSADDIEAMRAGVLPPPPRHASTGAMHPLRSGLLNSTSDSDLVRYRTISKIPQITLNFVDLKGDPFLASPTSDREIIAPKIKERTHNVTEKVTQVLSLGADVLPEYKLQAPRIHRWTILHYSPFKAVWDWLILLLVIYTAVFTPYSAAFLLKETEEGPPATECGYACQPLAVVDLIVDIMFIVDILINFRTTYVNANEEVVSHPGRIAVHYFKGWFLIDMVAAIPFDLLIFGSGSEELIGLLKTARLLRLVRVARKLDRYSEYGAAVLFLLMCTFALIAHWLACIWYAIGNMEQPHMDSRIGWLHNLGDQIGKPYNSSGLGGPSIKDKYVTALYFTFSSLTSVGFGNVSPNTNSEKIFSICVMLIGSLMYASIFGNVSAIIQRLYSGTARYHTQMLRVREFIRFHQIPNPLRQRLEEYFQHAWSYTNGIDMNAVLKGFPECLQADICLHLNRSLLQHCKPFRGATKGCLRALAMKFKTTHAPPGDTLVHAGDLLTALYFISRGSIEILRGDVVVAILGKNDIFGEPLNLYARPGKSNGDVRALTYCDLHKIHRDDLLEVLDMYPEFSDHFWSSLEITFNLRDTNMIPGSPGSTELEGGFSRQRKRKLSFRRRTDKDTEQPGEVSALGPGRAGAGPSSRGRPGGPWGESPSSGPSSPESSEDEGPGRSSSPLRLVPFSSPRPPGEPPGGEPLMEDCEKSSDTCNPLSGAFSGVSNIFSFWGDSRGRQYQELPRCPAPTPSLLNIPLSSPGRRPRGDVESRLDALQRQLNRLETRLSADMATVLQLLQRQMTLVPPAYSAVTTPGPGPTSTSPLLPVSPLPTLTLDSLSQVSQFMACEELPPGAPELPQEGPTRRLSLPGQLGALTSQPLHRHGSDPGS
In a further series the target is KCNQ2 channels (Homo sapiens, UniProt O43526). As to the kind of experiment: KCNQ2 automated patch clamp assay. Type of series: cell-based. Conditions: for inhibition at 30 µM: read-out: KCNQ2 % at 30 μM (IC50 column, saturating response not obtained); for fold loss of potency: KCNQ2 inhibitor, compared to the unsubstituted phenyl group (5). For orientation: The patch-clamp technique gives a direct electrical read-out from membranes.

Series [2] can be described thus: >300 assays performed within the MLPCN network. Conditions: weakly active in each of four assays out of >300.
Setting [3] is: KCNQ2, common assay system (PubChem AID: 588426) vs reported values.

calcium channel, N-type, sequence (Q00975 whole entry): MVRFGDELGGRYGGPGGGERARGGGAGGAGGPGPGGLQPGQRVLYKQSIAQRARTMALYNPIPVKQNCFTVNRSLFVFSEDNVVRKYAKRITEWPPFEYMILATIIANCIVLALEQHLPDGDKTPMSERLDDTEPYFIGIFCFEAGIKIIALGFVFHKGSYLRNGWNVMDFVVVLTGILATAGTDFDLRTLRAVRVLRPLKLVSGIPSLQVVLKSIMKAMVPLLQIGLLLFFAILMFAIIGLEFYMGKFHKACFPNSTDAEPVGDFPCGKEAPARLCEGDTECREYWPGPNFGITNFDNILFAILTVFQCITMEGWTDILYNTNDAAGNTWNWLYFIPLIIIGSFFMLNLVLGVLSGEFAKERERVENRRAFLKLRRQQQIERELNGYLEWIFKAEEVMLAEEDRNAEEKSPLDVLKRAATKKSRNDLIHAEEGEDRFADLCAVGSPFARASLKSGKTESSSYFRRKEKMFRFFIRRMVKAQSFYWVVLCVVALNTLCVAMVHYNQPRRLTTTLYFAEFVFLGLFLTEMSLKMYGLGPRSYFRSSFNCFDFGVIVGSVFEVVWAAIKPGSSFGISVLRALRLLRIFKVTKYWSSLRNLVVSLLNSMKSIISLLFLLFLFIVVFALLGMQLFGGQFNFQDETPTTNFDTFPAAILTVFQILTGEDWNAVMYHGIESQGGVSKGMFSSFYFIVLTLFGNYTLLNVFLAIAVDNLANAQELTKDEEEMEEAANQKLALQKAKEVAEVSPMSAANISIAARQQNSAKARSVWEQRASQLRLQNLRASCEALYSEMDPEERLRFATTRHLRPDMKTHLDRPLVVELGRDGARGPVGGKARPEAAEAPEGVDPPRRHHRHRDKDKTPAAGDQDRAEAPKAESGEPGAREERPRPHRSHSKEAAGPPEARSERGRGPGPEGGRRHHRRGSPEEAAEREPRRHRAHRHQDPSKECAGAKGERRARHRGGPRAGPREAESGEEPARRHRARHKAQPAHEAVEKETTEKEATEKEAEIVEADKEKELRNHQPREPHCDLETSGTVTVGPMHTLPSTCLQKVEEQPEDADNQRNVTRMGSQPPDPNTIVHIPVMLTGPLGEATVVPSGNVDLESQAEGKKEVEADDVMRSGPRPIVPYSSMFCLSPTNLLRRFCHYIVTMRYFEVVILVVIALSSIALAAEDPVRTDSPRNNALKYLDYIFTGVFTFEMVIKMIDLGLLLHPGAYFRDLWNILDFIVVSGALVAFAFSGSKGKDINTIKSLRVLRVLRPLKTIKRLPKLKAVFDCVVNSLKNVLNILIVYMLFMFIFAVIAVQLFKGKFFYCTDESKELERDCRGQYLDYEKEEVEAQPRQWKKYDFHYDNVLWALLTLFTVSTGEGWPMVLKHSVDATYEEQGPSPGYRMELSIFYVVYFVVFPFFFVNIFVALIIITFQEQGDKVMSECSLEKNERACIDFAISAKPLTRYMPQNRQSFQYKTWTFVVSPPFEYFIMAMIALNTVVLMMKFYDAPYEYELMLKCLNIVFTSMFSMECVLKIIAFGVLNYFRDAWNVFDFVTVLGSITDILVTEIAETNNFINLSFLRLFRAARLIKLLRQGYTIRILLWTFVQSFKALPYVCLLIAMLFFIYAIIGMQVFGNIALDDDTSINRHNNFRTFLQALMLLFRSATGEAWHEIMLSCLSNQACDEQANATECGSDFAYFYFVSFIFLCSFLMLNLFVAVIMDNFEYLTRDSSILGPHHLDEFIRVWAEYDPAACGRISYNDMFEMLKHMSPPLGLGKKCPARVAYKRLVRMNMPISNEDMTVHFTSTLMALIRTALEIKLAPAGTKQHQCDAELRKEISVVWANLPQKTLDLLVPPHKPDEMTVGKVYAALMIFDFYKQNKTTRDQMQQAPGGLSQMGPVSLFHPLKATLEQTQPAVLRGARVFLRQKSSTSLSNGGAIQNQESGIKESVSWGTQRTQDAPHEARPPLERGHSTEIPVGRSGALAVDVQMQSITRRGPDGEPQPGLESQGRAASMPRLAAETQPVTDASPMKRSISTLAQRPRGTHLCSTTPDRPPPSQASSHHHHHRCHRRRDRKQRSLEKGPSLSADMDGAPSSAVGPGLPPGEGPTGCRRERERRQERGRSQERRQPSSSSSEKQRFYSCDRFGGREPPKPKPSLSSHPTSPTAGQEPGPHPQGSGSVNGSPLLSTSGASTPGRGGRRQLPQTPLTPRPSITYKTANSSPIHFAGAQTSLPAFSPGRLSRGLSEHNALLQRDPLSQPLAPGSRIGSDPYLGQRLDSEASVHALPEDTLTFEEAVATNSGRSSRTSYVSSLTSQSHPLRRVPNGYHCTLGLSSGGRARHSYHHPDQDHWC

Turning to `CC[C@H](C(=O)Nc1ccccc1N1CCCC1)c1ccccc1` [(S)-5, (S)-2-Phenyl-N-(2-(pyrrolidin-1-yl)phenyl)butanamide], in the series “Intrinsic clearance”, the “Rat CLHEP” value was 67.3 mL/min/kg. Besides, the concentration at 1 h in series [1] amounted to 672 nM. Also, the “calcium channel L-type binding (in words)” value in the series on calcium channel, L-type is “not inhibited”. At calcium channel, N-type, the “calcium channel N-type binding (in words)” value is on record as “not inhibited”. Besides, the “potassium channel KATP binding (in words)” value in the series with potassium channel (KATP) was “not inhibited”. The “potassium channel hERG binding (in words)” value at potassium channel (hERG) is on record as “not inhibited”.

As to `O=C1c2ccccc2C(Cc2ccncc2)(Cc2ccncc2)c2ccccc21` [compound 1, XE-991, reference compound], at KCNQ2 channels (setting [3]), the “fold more potent compared to previous values” was 8 – 10 fold.

As to `O=C1N(c2ccccc2)c2ccccc2C1(Cc1ccncc1)Cc1ccncc1` [compound 2, Linopirdine, reference compound], the “fold more potent compared to previous values” at KCNQ2 channels (setting [3]) is listed as 8 – 10 fold.

With `c1ccc(C(NCc2cccnc2)(c2ccccc2)c2ccccc2)cc1` [compound 3, UCL2077, reference compound], the “fold less potent compared to previous values” on KCNQ2 channels (setting [3]) is ~ 7 fold.

As to `CCC(C(=O)Nc1ccccc1N1CCCC1)c1ccccc1` (stereo not drawn) [compound 5], the “activity in four MLPCN assays not dependent on KCNQ2” value in series [2] was > 15 µM.

On to `CC(C)C(C(=O)Nc1ccccc1N1CCCC1)c1ccccc1` (stereo not drawn) [compound 9], for which, on KCNQ2 channels, the “KCNQ2 activity (in words)” value was “not tolerated” and the inhibition at 30 µM came to 25.4%.

Consider `O=C(Nc1ccccc1N1CCCC1)C1(c2ccccc2)CC1` [compound 14], for which the “KCNQ2 activity (in words)” value on KCNQ2 channels was “not tolerated”.

Turning to `CC(C)(C(=O)Nc1ccccc1N1CCCC1)c1ccccc1` [compound 15], on KCNQ2 channels, the “KCNQ2 activity (in words)” value is “not tolerated”.

`O=C(Nc1ccccc1N1CCCC1)C1CCOc2ccccc21` (stereo not drawn) [compound 16]: the “KCNQ2 activity (in words)” value on KCNQ2 channels is reported as “not tolerated”.

Turning to `CCC(NC(=O)c1ccccc1N1CCCC1)c1ccccc1` (stereo not drawn) [compound 17], on KCNQ2 channels, the “KCNQ2 activity (in words)” value is listed as “complete loss of activity” and the inhibition at 30 µM was determined as 38%.

As to `CCC(C(=O)N(C)c1ccccc1N1CCCC1)c1ccccc1` (stereo not drawn) [compound 18], the “KCNQ2 activity (in words)” value on KCNQ2 channels is given as “complete loss of activity”.

Turning to `CCC(C(=O)Nc1ccccc1N1CCCC1)c1ccc(OC)c(OC)c1` (stereo not drawn) [compound 19], the “fold loss of potency” value on KCNQ2 channels is on record as 125 fold.

On to `CCC(C(=O)Nc1ccccc1N1CCCC1)c1ccccc1Cl` (stereo not drawn) [compound 30], for which the “fold loss of potency” value at KCNQ2 channels is 20 fold.

`O=C(Cc1cccc(Cl)c1)Nc1cccc(N2CCCC2)c1` [compound 45]: the “fold loss of activity” value at KCNQ2 channels (KCNQ2 activator series, 3-pyrrolidine vs 2-pyrrolidine) is listed as ~ 5 fold.

Consider `CCC(C(=O)Nc1ccccc1N1CCCCC1)c1ccccc1` (stereo not drawn) [compound 48], for which, on KCNQ2 channels, the “KCNQ2 activity (in words)” value is “loss of activity” and the inhibition at 30 µM is 32%.

As to `O=C(Cc1cccc(Cl)c1)Nc1ccccc1N1CCCCC1` [compound 49], on KCNQ2 channels, the “KCNQ2 activity (in words)” value was “loss of activity”.

On to `CCC(C(=O)Nc1ccccc1N(C)C)c1ccccc1` (stereo not drawn) [compound 56], for which the inhibition at 30 µM at KCNQ2 channels stood at 59.8%.

Turning to `CCC(C(=O)Nc1ccccc1OC)c1ccccc1` (stereo not drawn) [compound 63], the inhibition at 30 µM on KCNQ2 channels worked out at 28.1%.

As for `CCC(C(=O)Nc1ccccc1N(C)Cc1ccccc1)c1ccccc1` (stereo not drawn) [compound 64], on KCNQ2 channels, the inhibition at 30 µM is 27.1%.
